Tested on: Her2
Assay: Her2 degradation in BT-474 cells by Western blot (Method 1)
Assay type: cell-based, Human
Conditions: 0.5 μM, overnight
Description: Human high-Her2 breast carcinoma BT474 (HTB-20), SK-BR-3 (HTB-30) and MCF-7 breast carcinoma (HTB-22) from American Type Culture Collection, Va., USA were grown in Dulbecco's modified Eagle's medium with 4 mM L-glutamine and antibiotics (100 IU/ml penicillin and 100 μg/ml streptomycine; GibcoBRL). To obtain exponential cell growth, cells were trypsinized, counted and seeded at a cell density of 0.5×10^6 cells/ml regularly, every 3 days. All experiments were performed on day 1 after cell passage.
BT-474 cells are treated with 0.5 μM, 2 μM, or 5 μM of 17AAG (a positive control) or 0.5 μM, 2 μM, or 5 μM of a compound of the invention overnight in DMEM medium. After treatment, each cytoplasmic sample is prepared from 1×10^6 cells by incubation of cell lysis buffer (#9803, Cell Signaling Technology) on ice for 10 minutes. The resulting supernatant used as the cytosol fractions is dissolved with sample buffer for SDS-PAGE and run on a SDS-PAGE gel, blotted onto a nitrocellulose membrane by using semi-dry transfer. Non-specific binding to nitrocellulose is blocked with 5% skim milk in TBS with 0.5% Tween at room temperature for 1 hour, then probed with anti-Her2/ErB2 mAb (rabbit IgG, #2242, Cell Signaling) and anti-Tubulin (T9026, Sigma) as housekeeping control protein. […]

Structure (SMILES): C=CCNC1=C2C[C@@H](C)C[C@H](OC)[C@H](O)[C@@H](C)/C=C(\C)[C@H](OC(N)=O)[C@@H](OC)/C=C\C=C(/C)C(=O)NC(=CC1=O)C2=O [Compound 17AAG, 17-allylamino-17-demethoxygeldanamycin]
- degradation of Her2: partial degradation of Her2

From US9539243B2, “Triazole compounds that modulate HSP90 activity” (Synta Pharmaceuticals Corp., priority 2008, dated 2017)
